From patent US9636409B2, “Enzyme and receptor modulation using covalent conjugates of alpha,alpha-disubstituted glycine esters” (GlaxoSmithKline Intellectual Property Development Limited, priority 2008, dated 2017)
Where two headings read alike, the source gives them in different places. Values belong to the molecule of their own block, whether it stands above or below them.

Tests used:
[1] = test system: phosphorylation of MAPKAP-2 in U937 cells; experiment: p38 MAP Kinase cellular assay: inhibition of phosphorylation of MAPKAP2 in U937 cells; format: cell-based; conditions: for IC50: Homo sapiens, U-937, U937 monocyte cell line, read-out: Inhibition of phosphorylation of MAPKAP-2 in U937 cells (IC50, nM) (monocyte cell line)
Protocol: (§1) p38 MAP Kinase Cellular Assay: Inhibition of Phosphorylation of MAPKAP2
(§2) U937 or HUT78 cells were plated in RPMI 1640, and were incubated at 37° C., 5% CO2 for 18 hours. 10 mM stocks of compounds were diluted media/0.1% DMSO to give a log or semi-log dilution series. The wells for ‘no treatment’ and ‘anisomycin’ were treated with 0.1% DMSO only. The cells were incubated at 37° C., 5% CO2 for a further 4 hours. Anisomycin was added to all wells except ‘no treatment’ at a final concentration of 10 μM. The cells were incubated at 37° C., 5% CO2 for 30 minutes before harvest. Plates were stood on ice whilst harvesting, and all following steps were carried out at 4° C. The cells were pelleted at 1000 rpm for 10 minutes at 4° C., the media aspirated, and the pellet washed with cold PBS. The pellets were lysed in 120 μl of SDS lysis buffer (62.5 mM Tris, pH 6.8, 2% SDS, 10% glycerol, 50 mM DTT, with protease inhibitors and phosphatase inhibitors added according to the manufacturers' recommendations). After 30 minutes on ice, the samples were sonicated for 5 seconds before centrifugation at 13,000 rpm 4° C. for 10 minutes to remove cell debris. 10 μl of the resulting gel samples were loaded per lane on NOVEX 4-12% Bis-Tris MOPS gels. Membranes from western transfer of gels were blotted with anti-phospho MAPKAP2, anti-phospho HSP27 and anti GAPDH according to the manufacturers' Instructions. Signal was visualised using HRP-Hnked anti-rabbit or anti-mouse antibodies, ECL reagent and ECL film. IC50 values for the various compounds were visualised from the resulting photographic images, using both band-shift and signal intensity.

[2] = test system: phosphorylation of MAPKAP-2 in HUT 78 cells; experiment: p38 MAP Kinase cellular assay: inhibition of phosphorylation of MAPKAP2 in HUT 78 cells; format: cell-based; conditions: for IC50: Homo sapiens, HuT78, HUT 78 non-monocyte cell line; for Ratio IC50s in HUT 78 to U937 cells: MAPKAP-2 phosphorylation IC50s
Protocol: as §1, §2

recombinant hCE-1 = target: T1, recombinant hCE-1 (Homo sapiens, UniProt P23141); experiment: HCE-1 carboxylesterase assay; format: in vitro ADME; conditions: result in words
T1 sequence (P23141 18-567): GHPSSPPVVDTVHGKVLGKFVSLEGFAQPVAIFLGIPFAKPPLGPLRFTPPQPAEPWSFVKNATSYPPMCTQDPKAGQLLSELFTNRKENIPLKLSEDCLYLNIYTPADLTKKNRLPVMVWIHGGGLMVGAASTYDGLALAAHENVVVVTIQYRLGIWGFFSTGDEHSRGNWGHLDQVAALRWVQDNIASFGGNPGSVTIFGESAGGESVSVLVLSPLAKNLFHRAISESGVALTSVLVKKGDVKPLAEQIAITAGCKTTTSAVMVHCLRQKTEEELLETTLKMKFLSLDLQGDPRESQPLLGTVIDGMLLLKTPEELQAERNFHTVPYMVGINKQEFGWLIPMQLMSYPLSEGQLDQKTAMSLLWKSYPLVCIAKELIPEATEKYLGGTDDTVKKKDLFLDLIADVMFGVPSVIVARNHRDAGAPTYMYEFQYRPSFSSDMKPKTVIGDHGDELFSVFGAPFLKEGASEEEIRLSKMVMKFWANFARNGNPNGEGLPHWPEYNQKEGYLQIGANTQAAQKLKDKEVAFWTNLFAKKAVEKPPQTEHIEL
Protocol: HCE-1 Carboxylesterase Assay
Hydrolysis of esters to the corresponding carboxylic acids by hCE-1 can be measured using the following procedure. At zero time, 100 μl of recombinant hCE-1 at a concentration of 6 μg/mL in phosphate assay buffer (K2PO4 100 mM, KCl 40 mM, pH 7.4) was added to an equal volume of assay buffer containing 5 μM ester substrate. After thorough mixing, triplicate samples were incubated for 0, 20 or 80 minutes at 37° C. At the appropriate time, hydrolysis was stopped by the addition of 600 μl of acetonitrile. For zero time samples, the acetonitrile was added prior to the enzyme. The samples were analysed for the ester and its corresponding carboxylic acid at room temperature by LCMS (Sciex API 3000, HP1100 binary pump, CTC PAL). Chromatography was based on a […] (75×2.1 mm) column and a mobile phase of 5-95% acetonitrile in water/0.1% formic add. Levels of the acid, the hydrolysis product, after 80 minutes are expressed in ng/mL.

[3] = target: histone deacetylase activity (HeLa nuclear extract); experiment: Histone deacetylase activity (Fluor de Lys, HeLa nuclear extract); format: biochemical; conditions: read-out: Inhibition of HDAC (IC50 nM)
Protocol: Histone Deacetylase Activity
The ability of compounds to inhibit histone deacetylase activities was measured using the commercially available HDAC fluorescent activity assay from Biomol. In brief, the Fluor de Lys™ substrate, a lysine with an epsilon-amino acetylation, is incubated with the source of histone deacetylase activity (HeLa nuclear extract) in the presence or absence of inhibitor. Deacetylation of the substrate sensitises the substrate to Fluor de Lys™ developer, which generates a fluorophore. Thus, incubation of the substrate with a source of HDAC activity results in an increase in signal that is diminished in the presence of an HDAC inhibitor.
Data are expressed as a percentage of the control, measured in the absence of inhibitor, with background signal being subtracted from all samples, as follows: % activity=[(S^i−B)/(S^o−B)]×100 where S^i is the signal in the presence of substrate, enzyme and Inhibitor, S^o is the signal in the presence of substrate, enzyme and the vehicle in which the inhibitor is dissolved, and B is the background signal measured in the absence of enzyme.
IC50 values were determined by non-linear regression analysis, after fitting the results of eight data points to the equation for sigmoidal dose response with variable slope (% activity against log concentration of Compound), using Graphpad Prism software.
Histone deacetylase activity from crude nuclear extract derived from HeLa cells was used for screening. The preparation, purchased from 4C (Seneffe, Belgium), was prepared from HeLa cells harvested whilst in exponential growth phase. The nuclear extract was prepared according to the methodology described by J. D. Dignam, Nucl. Acid. Res., 1983, 11, 1475-1489, snap frozen in liquid nitrogen and stored at −80° C. The final buffer composition was 20 mM Hepes, 100 mM KCl, 0.2 mM EDTA, 0.5 mM DTT, 0.2 mM PMSF and 20% (v/v) glycerol.

U937 cells = experiment: U937 cell inhibition assay (WST-1 proliferation); format: cell-based; conditions: for IC50: Homo sapiens, U-937
Protocol: (§3) U937 and HUT Cell Inhibition Assay
(§4) Cancer cell lines (U937 and HUT) growing in log phase were harvested and seeded at 1000-2000 cells/well (100 μl final volume) into 96-well tissue culture plates. Following 24 hours of growth cells were treated with compound. Plates were then re-Incubated for a further 72-96 hours before a WST-1 cell viability assay was conducted according to the suppliers (Roche Applied Science) instructions.
(§5) Data were expressed as a percentage inhibition of the control, measured in the absence of Inhibitor, as follows: % inhibition=100−[(S^i/S^o)×100] where S^i is the signal in the presence of Inhibitor and S^o s the signal in the presence of DMSO.
(§6) Dose response curves were generated from 8 concentrations (top final concentration 10 μM, with 3-fold dilutions), using 6 replicates.
(§7) IC50 values were determined by non-linear regression analysis, after fitting the results to the equation for sigmoidal dose response with variable slope (% activity against log concentration of compound), using Graphpad Prism software.

HUT 78 cells = experiment: HUT cell inhibition assay (WST-1 proliferation); format: cell-based; conditions: Table 5
Protocol: as §3, §4, §5, §6, §7

IC50 ([1]; Table 3): 1 nM | IC50 ([2]; Table 3): 1 nM
Compound: Nc1c(C(=O)c2ccc(F)cc2F)ccc(=O)n1-c1c(F)cc(OCCC[C@H](N)C(=O)OC2CCCC2)cc1F [Compund III, reference compound]
Ratio IC50s in HUT 78 to U937 cells ([2]; Table 3): 1

IC50 ([1]; Table 2): 100 nM | IC50 ([2]; Table 2): 10000 nM
Compound: Nc1c(C(=O)c2ccc(F)cc2F)ccc(=O)n1-c1ccc(CCNC2(C(=O)OC3CCCC3)CCCC2)cc1 [Example 3]
potency in monocytic versus non monocytic cell lines (MAPKAP-2 phosphorylation) ([1]; U937 versus HUT 78): 100 times | Ratio IC50s in HUT 78 to U937 cells ([2]; Table 2): 100

IC50 ([1]; Table 3): 5 nM | IC50 ([2]; Table 3): 100 nM
Compound: CC(N)(CCCOc1cc(F)c(-n2c(N)c(C(=O)c3ccc(F)cc3F)ccc2=O)c(F)c1)C(=O)OC1CCCC1 (centres unmarked) [Example 5]
macrophage selectivity (MAPKAP-2 phosphorylation, U937 versus HUT 78) ([1]; result in words): macrophage selective | Ratio IC50s in HUT 78 to U937 cells ([2]; Table 3): 20

hydrolysis by hCE-1 (recombinant hCE-1): hydrolysed by hCE-1 | IC50 ([3]; Table 4, Acid = carboxylic acid hydrolysis product of the ester): 6120 nM | IC50 ([3]; Table 4, compound as such, Ester for Examples 7 and 9): 4200 nM | IC50 ([3]; Table 5, Acid = carboxylic acid hydrolysis product of the ester): 6120 nM | IC50 ([3]; Table 5, compound as such, Ester for Examples 7 and 9): 4200 nM | IC50 (U937 cells; Table 4, head prints no unit, same values in Table 5 as IC50 nM, read-out: Inhibition of proliferation in U937 cells): 180 nM | IC50 (U937 cells; Table 5, U937 cells, read-out: Inhibition of proliferation in U937 cells (IC50 nM)): 180 nM | Ratio cell IC50s to enzyme IC50 (U937 cells; Table 4, U937 proliferation IC50 to HDAC enzyme IC50): 0.043
Compound: O=C(CCc1ccc(CNC2(C(=O)OC3CCCC3)CCCC2)cc1)NO [Example 7, Cyclopentyl 1-({4-[3-(hydroxyamino)-3-oxopropyl]benzyl}amino)cyclopentanecarboxylate]
potency in monocytic (U937) versus non monocytic (Hut78) cell lines (proliferation) (U937 cells; U937 versus Hut78): 30 times | potency in the cellular (U937 proliferation) assay compared with the parent compound (U937 cells; versus Compound IV): significantly more potent than the parent compound | IC50 (HUT 78 cells; Homo sapiens, HuT78, HUT 78 cells): 6200 nM | Ratio IC50s in HUT 78 to U937 cells (HUT 78 cells; proliferation IC50s): 34
